Measurements taken from patent US6384042B2, “Systemic use of 5-HT3 receptor antagonists against rheumatic inflammatory processes” (priority 1999, dated 2002).

Columns and labels:
Type in all cases: in vivo
[1] = test system: patient exhibiting rheumatoid arthritis and severe consequential synovial inflammation; assay: Treatment of synovial inflammation/synovitis consequent to inflammatory processes, trial on a patient (Example 1); settings: for outcome of previous treatment: same rheumatoid arthritis patient, treatment before trial entry
Experimental: The subject is treated for 5 days sequentially with tropisetron administered at a dose of 2 mg/day i.v. Treatment results in amelioration of the synovial inflammation, a reduction of stiffness in the morning and remission from the formation of effusion in the kneejoint.

[2] = test system: patient with meniscus damage and arthritic change leading to synovial inflammation with knee joint effusion; assay: Treatment of synovial inflammation with knee joint effusion, patient (Example 2)
Experimental: Two 2 mg doses of tropisetron are administered i.v. over a period of 17 days with 15 injections, one each day with a 2 days pause in therapy. […] The improvement in condition continues over a further 7 days observation following completion of therapy.

[3] = test system: patient exhibiting marked dermatomyositis with bioptically verified vasculitis; assay: Treatment of dermatomyositis/vasculitis, patient (Example 3)
[4] = rheumatoid arthritis patient, 2 mg/day i.v. for 5 days
[5] = 3 injections i.v., each 2 mg, observed already after the first injection

Cn1cnc([N+](=O)[O-])c1Sc1ncnc2[nH]cnc12 [azathioprin]
outcome of previous treatment [1]: largely unsuccessfully

CN(Cc1cnc2nc(N)nc(N)c2n1)c1ccc(C(=O)N[C@@H](CCC(=O)O)C(=O)O)cc1 [methotrexate]
outcome of previous treatment [1]: largely unsuccessfully

CN1[C@@H]2CC[C@H]1C[C@@H](OC(=O)c1c[nH]c3ccccc13)C2 [tropisetron, Indol-3-yl-carboxylic acid-endo-8-methyl-8-aza-bicyclo[3,2,1]-oct-3-yl-ester]
formation of effusion in the knee joint [1, 4]: remission
glucocorticoid requirements [1, 4]: marked reduction
measure parameters for inflammation [1, 4]: reduction
stiffness in the morning [1, 4]: reduction
synovial inflammation [1, 4]: amelioration
movement of the knee joint ([2]; 2 mg i.v., 15 injections over 17 days): clearly improved
pain ([2]; 24 hours after the first i.v. injection of 2 mg): significant improvement
symptoms ([2]; following continuation of injections (2 mg i.v., 15 injections over 17 days)): virtually free of symptoms
duration of continued improvement in condition after completion of therapy ([2]; observation following completion of therapy): 7 days
exudation from the knee joint ([2]; within 8 days, without any other medication): completely inhibited
massive reddening of the skin [3, 5]: Virtually complete remission
pain symptoms [3, 5]: clear reduction
complaints in follow-up ([3]; over a period of one week following): substantially complaint free
